Consider one compound from US20260356803A1, “Nicotinamide derivatives” (Board of Regents, The University of Texas System, priority 2024, published 2026).

The nature of the data set: Levels of 9 in media and cells over time. Format: cell-based. An excerpt:
Given that compound 21 (1) and 9 both resemble and are rescued by Nam, and the fact that the NAD salvage pathway is essential for toxicity, we considered that these two compounds may themselves be substrates in the NAD salvage pathway. In this model, we would predict that the compounds would be metabolized in cells, and that excess Nam acting as a competitive substrate would block that metabolism. To test this hypothesis, we measured the total amount of 9 in media and cells over time with or without Nam supplementation.
Prior to the experiment, cells were cultured in low-Nam DMEM for at least 1 passage (3 days) to deplete intracellular Nam. 15,000 cells were plated in a 96-well plate with 100 μL low-Nam media. At appropriate time points, 500 nM 1 or 9, or equal volume of vehicle (DMSO) were added using TECAN. 200 μL of acetonitrile with 0.1% formic acid were added to the assayed wells. […] The supernatants were filtered through 0.2 μm PVDF filters and analyzed by LC-MS/TOF.
Initial evaluation of the stability of 9 in the presence and absence of exogenous Nam was performed using LC-MS/MS analysis with a Sciex TripleQuad™ 4500 (AB SCIEX, Framingham, MA, USA) coupled to a Shimadzu (Columbia, MD) Prominence LC. The compound was detected in positive MRM mode following the transition 204.9 to 79.0. […]

Each structure is given as a SMILES string.

A word on the half-life: it is the time in which the quantity being followed falls by half. Low readings indicate rapid decline, high ones slow decline. As to `O=C(Nc1cccs1)c1cccnc1` [Compound 9, N-(Thiophen-2-yl)nicotinamide], the “decrease in levels of 9 with Nam” value (100 μM Nam, 24 hours) is recorded as “no appreciable decrease”. The compound also showed a half-life at 0.5 µM (cells in nam-free dmem, 10% FBS Nam-free DMEM) of around 3.8 h.
